Assay results from PubChem BioAssay AID192 (DTP/NCI, 2004).
Several values for one entry are separate records, joined by “and”; a condition that tells them apart may be missing. Equal entries are not always repeated. Inconclusive results and toxic doses are left out. Peptide text beside a SMILES is read from it. * marks the point of attachment. Cbz = O=C(OCc1ccccc1)*

System: BDF1 mice, B16 melanoma ip, median survival T/C
Test: NCI In Vivo Anticancer Drug Screen. Data for tumor model B16 Melanoma (intraperitoneal) in B6D2F1 (BDF1) mice
Conditions: endpoint: median survival time, higher = longer survival
In short: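 Values are ratios of treated (T) to vehicle-control (C) measurements of survival or tumor size in tumor-bearing mice.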

[1] = dose: 50.0 mg/kg/injection, schedule: Q01DX009 (ip), vehicle: Klucel (hydroxypropylcellulose) (HPC)
[2] = dose: 100.0 mg/kg/injection, schedule: Q01DX009 (ip), vehicle: Klucel (hydroxypropylcellulose) (HPC)
[3] = dose: 200.0 mg/kg/injection, schedule: Q01DX009 (ip), vehicle: Klucel (hydroxypropylcellulose) (HPC)
[4] = dose: 400.0 mg/kg/injection, schedule: Q01DX009 (ip), vehicle: Klucel (hydroxypropylcellulose) (HPC)
[5] = dose: 400.0 mg/kg/injection, schedule: Q04DX003 (ip), vehicle: Klucel (hydroxypropylcellulose) (HPC)
[6] = dose: 100.0 mg/kg/injection, schedule: Q04DX003 (ip), vehicle: Klucel (hydroxypropylcellulose) (HPC)
[7] = dose: 50.0 mg/kg/injection, schedule: Q01DX009 (ip), vehicle: saline with Tween-80
[8] = dose: 100.0 mg/kg/injection, schedule: Q01DX009 (ip), vehicle: saline with Tween-80

In the case of `COc1ccccc1Oc1ccc(N=Cc2ccc(C)cc2)cc1`, the T/C [1] is reported as 102 % of control, the T/C [2] is reported as 86 % of control and 102 % of control and the T/C [3] is reported as 100 % of control and 111 % of control. The T/C [4] was 86 % of control.

For `CC(=N)/C(C(=O)NC1CCCCC1)=C(/C)O`, the T/C (dose: 100.0 mg/kg/injection, schedule: Q04DX003 (ip), vehicle: saline) was 100 % of control, the T/C (dose: 200.0 mg/kg/injection, schedule: Q04DX003 (ip), vehicle: saline) was 97 % of control and the T/C (dose: 400.0 mg/kg/injection, schedule: Q04DX003 (ip), vehicle: saline) was 97 % of control.

In the case of `CCO/C=C1\SC(=S)N(c2cccc(OC)c2)C1=O`, the T/C (dose: 12.5 mg/kg/injection, schedule: Q01DX009 (ip), vehicle: Klucel (hydroxypropylcellulose) (HPC)) is reported as 93 % of control and 98 % of control, the T/C (dose: 25.0 mg/kg/injection, schedule: Q01DX009 (ip), vehicle: Klucel (hydroxypropylcellulose) (HPC)) is reported as 98 % of control and 107 % of control and the T/C (dose: 35.0 mg/kg/injection, schedule: Q01DX009 (ip), vehicle: saline) is reported as 98 % of control. For the same compound, the T/C [1] was 98 % of control, the T/C (dose: 50.0 mg/kg/injection, schedule: Q01DX009 (ip), vehicle: saline) was 100 % of control and the T/C (dose: 75.0 mg/kg/injection, schedule: Q01DX009 (ip), vehicle: saline) was 91 % of control. For the same compound, the T/C [2] was 100 % of control and 102 % of control, the T/C (dose: 265.0 mg/kg/injection, schedule: Q04DX003 (ip), vehicle: Klucel (hydroxypropylcellulose) (HPC)) was 101 % of control and the T/C [5] was 97 % of control.

For `CCOC(=O)NC(C)(C)CN(CCCO)C(=O)OCC`, the T/C [6] was 100 % of control, the T/C (dose: 200.0 mg/kg/injection, schedule: Q04DX003 (ip), vehicle: Klucel (hydroxypropylcellulose) (HPC)) was 100 % of control and the T/C [5] was 97 % of control.

With `O=S(=O)(O)CNc1cc(Cl)cc(Cl)c1` the T/C [2] was 108 % of control and the T/C [3] was 94 % of control.

In the case of `OCC1OC(n2cnc3c(=S)nc[nH]c32)CC1O` (configuration not stated), the T/C [1] is reported as 97 % of control and the T/C [2] is reported as 92 % of control.

In the case of `COc1ccccc1NC(=O)Nc1ccccc1`, the T/C [2] is reported as 104 % of control, the T/C [3] is reported as 103 % of control and the T/C [4] is reported as 109 % of control.

In the case of `O=NN(CCCl)C(=O)NCC1CCC(CNC(=O)N(CCCl)N=O)CC1` (configuration not stated), the T/C (dose: 17.0 mg/kg/injection, schedule: Q01DX009 (ip), vehicle: saline) is reported as 122 % of control, the T/C (dose: 33.0 mg/kg/injection, schedule: Q01DX009 (ip), vehicle: saline) is reported as 152 % of control and the T/C (dose: 65.0 mg/kg/injection, schedule: Q01DX009 (ip), vehicle: saline) is reported as 184 % of control. For the same compound, the T/C (dose: 130.0 mg/kg/injection, schedule: Q01DX009 (ip), vehicle: saline) was 193 % of control.

`C1CC[N-]CC1.C1CC[N-]CC1.O=C(O)C(=O)O.[Pt+2]` was tested, and the T/C (dose: 6.25 mg/kg/injection, schedule: Q04DX003 (ip), vehicle: Klucel (hydroxypropylcellulose) (HPC)) was 100 % of control, the T/C (dose: 12.5 mg/kg/injection, schedule: Q04DX003 (ip), vehicle: Klucel (hydroxypropylcellulose) (HPC)) was 120 % of control and the T/C (dose: 25.0 mg/kg/injection, schedule: Q04DX003 (ip), vehicle: Klucel (hydroxypropylcellulose) (HPC)) was 119 % of control. For the same compound, the T/C (dose: 50.0 mg/kg/injection, schedule: Q04DX003 (ip), vehicle: Klucel (hydroxypropylcellulose) (HPC)) was 115 % of control and the T/C [6] was 113 % of control.

In the case of `CSCCC(NC(=O)C(Cc1ccccc1)NC(=O)OCc1ccccc1)C(=O)O` (stereo not drawn) (Cbz-Phe-Met-OH; configuration not given here), the T/C [7] is reported as 97 % of control and the T/C [8] is reported as 93 % of control.

In the case of `N#CNN=Nc1cc(Cl)c(Cl)c(Cl)c1`, the T/C (dose: 12.5 mg/kg/injection, schedule: Q01DX009 (ip), vehicle: saline) is reported as 120 % of control and the T/C (dose: 25.0 mg/kg/injection, schedule: Q01DX009 (ip), vehicle: saline) is reported as 111 % of control.

For `CC[CH2][Pb]([CH2]CC)([CH2]CC)[O]C(=O)c1ccccc1`, the T/C (dose: 1.56 mg/kg/injection, schedule: Q01DX009 (ip), vehicle: Klucel (hydroxypropylcellulose) (HPC)) was 103 % of control and the T/C (dose: 3.13 mg/kg/injection, schedule: Q01DX009 (ip), vehicle: Klucel (hydroxypropylcellulose) (HPC)) was 96 % of control.

For `COc1cc2c(cc1OC)C1CCN3C(=O)CCC3N1CC2` (configuration not stated), the T/C [8] was 94 % of control, the T/C (dose: 200.0 mg/kg/injection, schedule: Q01DX009 (ip), vehicle: saline with Tween-80) was 91 % of control and the T/C (dose: 400.0 mg/kg/injection, schedule: Q01DX009 (ip), vehicle: saline with Tween-80) was 105 % of control.

In the case of `C[Si]1(C)CCCSC1`, the T/C (dose: 12.5 mg/kg/injection, schedule: Q01DX009 (ip), vehicle: saline with Tween-80) is reported as 98 % of control, the T/C (dose: 25.0 mg/kg/injection, schedule: Q01DX009 (ip), vehicle: saline with Tween-80) is reported as 98 % of control and the T/C [7] is reported as 91 % of control.
